Measured values taken from ChEMBL document CHEMBL1201862, “PubChem BioAssay data set” (2004).
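How tested: cells in 96-well plates exposed to compound for 48 hours at five concentrations. GI50 = concentration required for 50% inhibition of growth.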 Activity calls are given as the source filed them. Cut-off read from the data, not from the text of the source: active = GI50 up to about 1.1 µM and inactive = higher.

How the values were obtained:
Assay in all cases: DTP human tumour cell line panel, 48 h
CAKI-1 = tested on: CAKI-1
Malme-3M = tested on: Malme-3M
OVCAR-3 = tested on: OVCAR-3
SK-MEL-2 = tested on: SK-MEL-2
CCRF-CEM = tested on: CCRF-CEM
Hs-578T = tested on: Hs-578T
RXF 393 = tested on: RXF 393
HT-29 = tested on: HT-29
SF-295 = tested on: SF-295
MOLT-4 = tested on: MOLT-4
MDA-N = tested on: MDA-N
786-0 = tested on: 786-0
MDA-MB-231 = tested on: MDA-MB-231
SN12C = tested on: SN12C
COLO 205 = tested on: COLO 205
MDA-MB-435 = tested on: MDA-MB-435
HCT-15 = tested on: HCT-15
SNB-19 = tested on: SNB-19
MCF7 = tested on: MCF7
UACC-62 = tested on: UACC-62
ACHN = tested on: ACHN
A498 = tested on: A498
NCI-H460 = tested on: NCI-H460
SK-MEL-5 = tested on: SK-MEL-5
EKVX = tested on: EKVX
SK-OV-3 = tested on: SK-OV-3
IGROV-1 = tested on: IGROV-1
BT-549 = tested on: BT-549
NCI-H226 = tested on: NCI-H226
KM12 = tested on: KM12
NCI-H23 = tested on: NCI-H23
UACC-257 = tested on: UACC-257
K562 = tested on: K562
SF-268 = tested on: SF-268
OVCAR-8 = tested on: OVCAR-8
SR = tested on: SR
OVCAR-4 = tested on: OVCAR-4
HOP-62 = tested on: HOP-62
DU-145 = tested on: DU-145
SF-539 = tested on: SF-539
UO-31 = tested on: UO-31
M14 = tested on: M14
NCI/ADR-RES = tested on: NCI/ADR-RES
PC-3 = tested on: PC-3
U-251 = tested on: U-251
NCI-H522 = tested on: NCI-H522
TK-10 = tested on: TK-10
T47D = tested on: T47D
OVCAR-5 = tested on: OVCAR-5
A549 = tested on: A549
HCC 2998 = tested on: HCC 2998
HCT-116 = tested on: HCT-116
SNB-75 = tested on: SNB-75
LOX IMVI = tested on: LOX IMVI
HOP-92 = tested on: HOP-92
HL-60 = tested on: HL-60
SK-MEL-28 = tested on: SK-MEL-28
RPMI-8226 = tested on: RPMI-8226
SW-620 = tested on: SW-620

Measured: GI50

c1ccc(-c2cc(-c3cc(-c4ccccc4)[nH]n3)[nH]n2)cc1
> 100 µM: HCT-15
inactive: CAKI-1 > 100 µM | Malme-3M > 100 µM | OVCAR-3 > 100 µM | SK-MEL-2 > 100 µM | CCRF-CEM > 100 µM | Hs-578T > 100 µM | RXF 393 > 100 µM | HT-29 > 100 µM | SF-295 > 100 µM | MOLT-4 > 100 µM | MDA-N > 100 µM | 786-0 > 100 µM | MDA-MB-231 > 100 µM | SN12C > 100 µM | COLO 205 > 100 µM | MDA-MB-435 > 100 µM | SNB-19 > 100 µM | MCF7 > 100 µM | UACC-62 > 100 µM | ACHN > 100 µM | A498 > 100 µM | NCI-H460 > 100 µM | SK-MEL-5 > 100 µM | EKVX > 100 µM | SK-OV-3 > 100 µM | IGROV-1 > 100 µM | BT-549 > 100 µM | NCI-H226 > 100 µM | KM12 > 100 µM | NCI-H23 > 100 µM | UACC-257 > 100 µM | K562 > 100 µM | SF-268 > 100 µM | OVCAR-8 > 100 µM | SR > 100 µM | OVCAR-4 > 100 µM | HOP-62 > 100 µM | DU-145 > 100 µM | SF-539 > 100 µM | UO-31 > 100 µM | M14 > 100 µM | NCI/ADR-RES > 100 µM | PC-3 > 100 µM | U-251 > 100 µM | NCI-H522 > 100 µM | TK-10 > 100 µM | T47D > 100 µM | OVCAR-5 > 100 µM | A549 > 100 µM | HCC 2998 > 100 µM | HCT-116 > 100 µM | SNB-75 > 100 µM

CC1OC(OC2C(CO)OC(O[C@H]3CC[C@@]4(C)C(=CC[C@H]5[C@@H]6C[C@@H]7O[C@](O)(CC[C@H](C)COC8OC(CO)C(O)C(O)C8O)[C@@H](C)[C@@H]7[C@@]6(C)CC[C@@H]54)C3)C(OC3OC(C)C(O)C(O)C3O)C2O)C(O)C(O)C1O (stereo partly specified)
2.75 µM: HCT-15
inactive: CAKI-1 1.77 µM | Malme-3M 5.6 µM | OVCAR-3 8.2 µM | LOX IMVI 2.17 µM | SK-MEL-2 6.21 µM | CCRF-CEM 1.42 µM | Hs-578T 2.63 µM | RXF 393 5.11 µM | HT-29 11.9 µM | HOP-92 3.56 µM | SF-295 4.41 µM | MOLT-4 2.29 µM | MDA-N 3.4 µM | 786-0 2.52 µM | MDA-MB-231 8.55 µM | SN12C 10 µM | HL-60 4.66 µM | COLO 205 5.01 µM | MDA-MB-435 2.07 µM | SNB-19 2.8 µM | MCF7 7.8 µM | UACC-62 5.42 µM | ACHN 14.3 µM | A498 26.7 µM | NCI-H460 4.81 µM | SK-MEL-5 7.1 µM | EKVX 17.1 µM | SK-OV-3 2.91 µM | IGROV-1 5.75 µM | BT-549 4.48 µM | SK-MEL-28 2.94 µM | NCI-H226 9.62 µM | KM12 2.36 µM | NCI-H23 4.29 µM | UACC-257 6.64 µM | K562 2.8 µM | RPMI-8226 6.25 µM | SF-268 3.36 µM | OVCAR-8 4.06 µM | SR > 100 µM | OVCAR-4 7.96 µM | HOP-62 2.18 µM | DU-145 2.35 µM | SF-539 2.82 µM | UO-31 3.63 µM | M14 3.05 µM | NCI/ADR-RES 4.4 µM | PC-3 4.48 µM | U-251 3.15 µM | NCI-H522 2.88 µM | TK-10 > 73.3 µM | T47D 3.51 µM | OVCAR-5 10.8 µM | A549 2.35 µM | HCT-116 3.72 µM | SNB-75 2.16 µM
active: SW-620 0.644 µM
